The target of one assay is T1, dTAG-HA SLC38A1 (Homo sapiens, UniProt Q96SW2+Q9H2H9).
T1 construct: expressed in transfected cells
The assay is described as follows: Targeted degradation of dTAG-tagged SLC38A1 (western blot). The format is cell-based. The protocol:
(A) HAP1 cells expressing dTAG-HA SLC38A9, 38A2, or 38A1 were treated with 0.5 µM dTAG13 for 16, 24 or 48 hours.
SLC1A5, SLC2A1, SLC2A3, SLC16A1, SLC38A1, SLC38A2 were obtained as gateway-compatible pENTR/pDONR vectors from the Harvard PlasmID Repository. SLC39A7 was obtained from Dharmacon, GE Healthcare. The following vectors were synthesized by Genescript: SLC4A4, SLC7A3, SLC38A9, SLC25A1, SLC9A1, SLC9A2, SLC9A3, SLC9A4, SLC9A5, SLC9A6, SLC9A7, SLC9A8, and SLC9B2. SLC30A9, SLC33A1, SLC35B2, SLC25A26, and MTCH2 were a gift from the RESOLUTE consortium. cDNAs were transferred into gateway-compatible lentiviral expression vectors: pLX305 dTAG vectors (Addgene #91797/8) or pRRL Strep-HA (described previously43, EF1a promotor driven expression) using LR recombination (ThermoFisher Scientific). […]
For immunoblotting, whole cell extracts were prepared using RIPA lysis buffer (25 mM Tris/HCl pH 7.6, 150 mM NaCl, 1% NP-40, 1% sodium deoxycholate, 0.1% SDS, EDTA-free protease inhibitor (Roche) and phosphatase inhibitors 2+3 (Sigma- Aldrich)). […] Protein extracts were quantified and normalized using the BCA assay (Thermo Scientific). […]
SLCs were ectopically expressed as fusions to a mutated FKBP domain, also known as the dTAG system. […] Each of the tested SLCs was stably expressed in HAP1 cells, and subcellular localization was assessed by immunofluorescence microscopy (FIG. 1B). […]
A general note: A western blot detects proteins with antibodies after separation by electrophoresis.

Another assay has as its target T2, SLC9A1 (Homo sapiens, UniProt P19634).
T2 construct: endogenous in cells; host or cells: HAP1, KBM7 (WT and CRBN knockout)
As to the kind of experiment: Degradation of endogenous SLC9A1 (immunoblot). The assay is classed as cell-based. The protocol:
(B) HAP1 and KBM7 cells were treated with different concentrations of d9A1-2.
(C)Both WT and CRBN knockout KBM7 cell lines were treated with 1 µM d9A1-2 for 16 hours.
(D) Chemical “rescue” of d9A1-2 driven degradation. WT KBM7 cell lines were treated with 0.5 µM d9A1-2 for 16 hours. These cells were also treated with bortezomib (bort. 0.25 µM), MG-132 (MG, 1 µM), MLN4924 (MLN,1 µM), pomalidomide (poma., 1 µM), or bafilomycin A1 (bafi., 10 µM). All molecules, apart from bafilomycin, could rescue SLC9A1 from degradation.
(B) HAP1 cells were treated with a dose curve of the warhead, d9A1-1, d9A1-2, d9A1-3, d9A1-4, for 24 hours.
(C) KBM7 cells were treated with varying concentrations of d9A1-2.
HEK293T, LS180 were obtained from ATCC (Manassas, VA, USA), HAP1 WT, HAP1 -/-SLC38A2 (HZGHC001975c003), HAP1 -/-SLC38A9 (HZGHC000777c011) were obtained from Horizon Genomics. Other cell lines utilized here: CAKI (a gift of Georg Winter’s lab), SW620, SW480 (both a gift from Walter Berger’s lab, Medical University Vienna), LOVO, HCT15 (both a gift from Chris Gasche), KBM7 (a gift from Thijn Brummelkamp’s lab), KBM7 -/- CRBN was described in Mayor-Ruiz et al. Cells were cultured, according to the ATCC recommendation in DMEM, RPMI or IMDM medium (Gibco) supplemented with 10% (v/v) FBS and antibiotics (100 U/ml penicillin and […] streptomycin). Knock-in single cell clones of dTAG-HA SLC38A2 HAP1 cell line were generated as previously described. For starvation, culture media was replaced with media without amino acids or FBS.
For immunoblotting, whole cell extracts were prepared using RIPA lysis buffer (25 mM Tris/HCl pH 7.6, 150 mM NaCl, 1% NP-40, 1% sodium deoxycholate, 0.1% SDS, EDTA-free protease inhibitor (Roche) and phosphatase inhibitors 2+3 (Sigma- Aldrich)). Cell extracts were incubated for 15 min on ice in 50 µL RIPA buffer. Lysates were cleared by centrifugation (20,000 g, 10 min, 4° C.). Protein extracts were quantified and normalized using the BCA assay (Thermo Scientific). Where indicated, cleared lysates where treated with the enzyme PNGase (NEB) to deglycosylate the proteins. Lämmli Sample Buffer 4x was added to protein extract samples without boiling. Cell lysates were run on SDS-polyacrylamide gel in tris-glycine running buffer and transferred to nitrocellulose membranes Amersham Protran 0.45 µm (GE Healthcare), according to standard methods. The membranes were incubated with the antibodies indicated below and visualized with horseradish peroxidase-conjugated secondary antibodies (described below) using the ECL Western blotting system (Thermo Scientific). The following antibodies were used: GAPDH (Santa Cruz, sc-365062), Actin (Cyoskeleton Inc., #AAN01), HA (Covance, cat #MMS-101R), HA (Cell Signaling, #3724), HA7-HRP (Sigma, H6533), HA (Roche, #11867423001), SLC9A1 (Santa Cruz, sc-136239), SLC2A1 (Cell Signaling, #12939), SLC38A1 (Cell Signaling, #36057). Secondary antibody for imaging goat anti-Rat IgG Alexa Fluor 488 (ThermoFisher, A11006). The following secondary antibodies were used for immunoblotting: goat anti-mouse HRP (115-035-003, Jackson ImmunoResearch) and goat anti-rabbit HRP (111-035-003, Jackson ImmunoResearch).
MG132, Bortezomib, Pomalidomide were obtained from Selleckchem. MLN4924 was obtained from MedchemExpress. Bafilomycin was obtained from Enzo Life Sciences. dTAG13 was a generous gift from the Nathanael Gray laboratory, Dana Farber Cancer Institute. The d9A1 degrader series (warhead, d9A1-1 to d9A1-4) was synthesized by Wuxi AppTec. All chemicals were dissolved in DMSO (Sigma-Aldrich) and utilized at the concertation described in respective figures.

The structures appear in SMILES notation.

T2 sequence (P19634 whole entry): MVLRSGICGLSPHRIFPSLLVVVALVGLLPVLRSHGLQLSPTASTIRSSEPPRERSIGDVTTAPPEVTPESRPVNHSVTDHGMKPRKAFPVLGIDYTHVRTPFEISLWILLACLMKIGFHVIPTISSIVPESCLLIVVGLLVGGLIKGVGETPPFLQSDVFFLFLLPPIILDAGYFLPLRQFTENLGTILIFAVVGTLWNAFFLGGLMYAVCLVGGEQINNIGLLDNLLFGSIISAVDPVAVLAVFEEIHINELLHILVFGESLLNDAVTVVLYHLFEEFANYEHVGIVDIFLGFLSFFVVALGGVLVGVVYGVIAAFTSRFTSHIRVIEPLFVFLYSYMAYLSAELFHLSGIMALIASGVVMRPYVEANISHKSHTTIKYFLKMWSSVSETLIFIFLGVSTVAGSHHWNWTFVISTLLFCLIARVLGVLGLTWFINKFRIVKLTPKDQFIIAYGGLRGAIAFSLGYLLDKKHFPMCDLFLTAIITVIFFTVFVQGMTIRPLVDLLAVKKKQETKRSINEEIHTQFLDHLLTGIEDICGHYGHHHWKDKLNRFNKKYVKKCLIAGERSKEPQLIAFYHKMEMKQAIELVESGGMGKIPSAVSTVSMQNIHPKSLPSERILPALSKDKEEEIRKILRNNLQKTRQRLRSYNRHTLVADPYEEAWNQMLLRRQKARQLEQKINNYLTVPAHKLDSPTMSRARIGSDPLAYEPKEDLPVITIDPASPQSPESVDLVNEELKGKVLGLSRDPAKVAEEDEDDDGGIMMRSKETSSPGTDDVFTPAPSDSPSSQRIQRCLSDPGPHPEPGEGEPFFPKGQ
T1 sequence (Q16531 whole entry): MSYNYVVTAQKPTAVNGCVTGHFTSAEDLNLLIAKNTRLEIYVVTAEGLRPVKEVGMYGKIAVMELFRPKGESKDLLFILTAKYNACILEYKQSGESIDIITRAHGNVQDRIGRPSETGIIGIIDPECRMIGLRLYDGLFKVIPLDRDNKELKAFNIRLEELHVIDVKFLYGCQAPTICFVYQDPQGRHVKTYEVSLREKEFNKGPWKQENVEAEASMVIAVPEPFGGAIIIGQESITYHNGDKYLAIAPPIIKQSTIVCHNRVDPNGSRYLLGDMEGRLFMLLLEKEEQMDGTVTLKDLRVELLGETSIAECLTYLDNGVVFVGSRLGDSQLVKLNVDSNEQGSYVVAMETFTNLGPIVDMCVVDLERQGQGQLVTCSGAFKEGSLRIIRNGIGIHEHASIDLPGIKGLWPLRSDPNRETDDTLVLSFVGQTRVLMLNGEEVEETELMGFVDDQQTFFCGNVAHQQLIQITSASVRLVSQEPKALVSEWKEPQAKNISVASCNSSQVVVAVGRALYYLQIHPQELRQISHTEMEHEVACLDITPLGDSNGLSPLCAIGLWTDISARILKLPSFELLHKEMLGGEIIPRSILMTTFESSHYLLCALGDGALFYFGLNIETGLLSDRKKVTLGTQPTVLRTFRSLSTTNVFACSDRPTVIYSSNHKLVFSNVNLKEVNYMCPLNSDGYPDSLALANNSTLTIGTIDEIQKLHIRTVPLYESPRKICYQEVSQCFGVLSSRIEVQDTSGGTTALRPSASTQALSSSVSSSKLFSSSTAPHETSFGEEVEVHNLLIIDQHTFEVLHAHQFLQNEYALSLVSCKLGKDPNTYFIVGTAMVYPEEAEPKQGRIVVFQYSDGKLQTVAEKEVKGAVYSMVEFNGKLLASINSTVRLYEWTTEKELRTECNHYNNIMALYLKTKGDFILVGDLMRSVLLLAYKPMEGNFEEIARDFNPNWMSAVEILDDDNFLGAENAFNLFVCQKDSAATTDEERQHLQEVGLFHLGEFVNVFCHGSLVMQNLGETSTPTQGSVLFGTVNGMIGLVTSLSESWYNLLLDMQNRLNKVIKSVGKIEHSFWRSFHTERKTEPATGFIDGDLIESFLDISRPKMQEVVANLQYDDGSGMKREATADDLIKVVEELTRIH
T1 sequence (Q9H2H9 other isoform, or with tags, fused parts or gaps): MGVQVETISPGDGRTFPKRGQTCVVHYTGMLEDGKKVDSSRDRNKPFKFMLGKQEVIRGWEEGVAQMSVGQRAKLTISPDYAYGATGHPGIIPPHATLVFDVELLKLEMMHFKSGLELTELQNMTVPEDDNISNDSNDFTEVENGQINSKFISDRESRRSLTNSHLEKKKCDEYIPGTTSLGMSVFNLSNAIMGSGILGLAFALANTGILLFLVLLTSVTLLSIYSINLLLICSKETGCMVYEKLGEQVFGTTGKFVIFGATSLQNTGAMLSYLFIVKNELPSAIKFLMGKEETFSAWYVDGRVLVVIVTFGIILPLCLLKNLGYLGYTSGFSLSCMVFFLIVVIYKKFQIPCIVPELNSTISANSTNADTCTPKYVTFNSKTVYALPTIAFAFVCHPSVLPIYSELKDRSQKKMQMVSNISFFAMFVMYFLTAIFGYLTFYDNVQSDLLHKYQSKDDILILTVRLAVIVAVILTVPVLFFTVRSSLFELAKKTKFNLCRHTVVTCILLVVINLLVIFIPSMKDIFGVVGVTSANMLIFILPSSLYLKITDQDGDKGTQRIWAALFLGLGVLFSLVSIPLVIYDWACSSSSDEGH
T1 sequence (Q96SW2 whole entry): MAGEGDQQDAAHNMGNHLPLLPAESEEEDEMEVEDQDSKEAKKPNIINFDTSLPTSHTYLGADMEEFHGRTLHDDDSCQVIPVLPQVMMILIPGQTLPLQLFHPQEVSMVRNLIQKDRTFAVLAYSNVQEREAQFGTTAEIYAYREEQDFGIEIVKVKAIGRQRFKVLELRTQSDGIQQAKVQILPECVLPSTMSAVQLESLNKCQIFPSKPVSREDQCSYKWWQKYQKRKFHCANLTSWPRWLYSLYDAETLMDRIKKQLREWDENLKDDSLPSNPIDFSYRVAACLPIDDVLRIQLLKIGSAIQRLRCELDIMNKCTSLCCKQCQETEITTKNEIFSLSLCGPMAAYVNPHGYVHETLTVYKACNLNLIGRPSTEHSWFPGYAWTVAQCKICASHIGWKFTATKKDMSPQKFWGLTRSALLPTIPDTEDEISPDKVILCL

As for `CC[C@H](C(=O)N1CCCC[C@H]1C(=O)O[C@H](CCc1ccc(OC)c(OC)c1)c1ccccc1OCC(=O)NCCCCCCOc1cccc2c1C(=O)N(C1CCC(=O)NC1=O)C2=O)c1cc(OC)c(OC)c(OC)c1` (stereo partly shown) [dTAG13], the “degradation of the target SLC” value on dTAG-HA SLC38A1 (HAP1, dTAG-HA SLC38A1, 0.5 µM, 16, 24 or 48 hours) was “Near-complete degradation”. Moreover, the “degradation of dTAG-HA SLC38A1 (antibodies against HA-tag and total protein)” value on dTAG-HA SLC38A1 (HAP1 or 293T, PNGase de-glycosylated extracts) is listed as “completely degraded”.

Turning to `Cc1cc(-c2ccc(C(=O)NCCOCCOCCOCCOCCNc3cccc4c3C(=O)N(C3CCC(=O)NC3=O)C4=O)cc2N2CCC(c3[nH]cnc3C)CC2)ccc1F` (stereo not shown) [d9A1-2], the “degradation of endogenous SLC9A1” value on SLC9A1 (HAP1 and KBM7 cells) is “degradation of endogenous SLC9A1 at sub-micromolar concentration”. The “time within which degradation of SLC9A1 was observed” value at SLC9A1 (HAP1 and KBM7 cells, different concentrations) is ≤ 8 h. Moreover, the “SLC9A1 degradation, dose curve” value on SLC9A1 (HAP1 cells, 24 hours) was “most effective”. Further, the “SLC9A1 degradation in WT and CRBN knockout cells” value on SLC9A1 (KBM7 WT and CRBN knockout, 1 µM, 16 hours) was “observed in WT but not CRBN knockout”. On SLC9A1 (KBM7 cells, varying concentrations, 5, 7, 9 or 12 hours), the “SLC9A1 expression, time course” value was “Reduction of SLC9A1 expression was observed”.

The values above are taken from US20230241226A1, “COMPOUNDS FOR TARGETED DEGRADATION OF CARRIER PROTEINS AND USES THEREOF” (CeMM - Forschungszentrum für Molekulare Medizin GmbH, priority 2019, published 2023).
